Several values for one entry are separate records, joined by “and”; a condition that tells them apart may be missing. Identical values can stand only once.
Tests used:
[1] = biological target: human erythrocyte AChE (Homo sapiens, UniProt P22303); assay: biochemical
[2] = Ferric reducing antioxidant power (FRAP) assay; design: key: ratio of Trolox to test compound concentration giving same FRAP effect; conditions: Trolox equivalents; compound concentration 20 µM
Description: The ferric reducing antioxidant power (FRAP) assay proposed by Benzie and Strain [106, 107] was modified to be performed in 96-well microplates, as described in detail in [32]. The FRAP reagent contained 2.5 mL of 10 mM TPTZ (2,4,6-tris(2-pyridyl)-s-triazine, Sigma-Aldrich) solution in 40 mM HCl, 2.5 mL of 20 mM FeCl3 (Sigma-Aldrich) in distilled water and 25 mL of 0.3 M acetate buffer (pH 3.6). Aliquots of 10 µL of the tested compound (compounds 3, 5 or reference substance) dissolved in DMSO (0.5 mM) were placed in quadruplicate. Absorbance was measured at the wavelength of 593 nm after 60-min incubation at 37 °C. In each case, Trolox was used as a reference compound to obtain the standard curve and value was calculated with respect to the activity of Trolox and expressed as Trolox equivalents (TE)—the values calculated as the ratio of the concentrations of Trolox and the test compound, resulting in the same effect on ferric reducing activity.

[3] = biological target: T1, equine serum BChE (Equus caballus, UniProt P81908); assay: biochemical; conditions: mean ± SEM, n = 3; read-out: Equine Serum BChE, IC50
T1 construct: we used human erythrocyte AChE, equine serum BChE, and porcine liver CES; purchased Sigma-Aldrich; host or cells: equine serum

[4] = biological target: T2, EeAChE PAS (Electrophorus electricus, UniProt O42275); assay: Propidium iodide displacement from the PAS of EeAChE; format: binding, Electric eel; conditions: compound concentration 20 µM
T2 construct: purchased Sigma-Aldrich type VI-S
Description: The enzyme was Electric eel AChE (EeAChE type VI-S, lyophilized powder, Sigma-Aldrich). We selected this source of AChE for consistency with our other reports and because of the purity, specific activity, and lower cost compared to human AChE.
The assay is based on the high level of fluorescence intensity of propidium iodide bound with AChE decreasing in the presence of test compounds that competitively displace propidium iodide from the AChE PAS [25, 27]. Specificially, EeAChE ([…] final concentration) is incubated with the test compound (20 μM in 1 mM Tris-HCl buffer pH 8.0, 25 °C, for 15 min). Propidium iodide (final concentration 8 μM) is then added for a further 15-min incubation and the fluorescence spectrum is taken (530 nm (excitation) and 600 nm (emission)). The same concentration of propidium iodide in the Tris-HCI buffer was used as the blank. Triplicate determinations were recorded from a FLUOStar Optima microplate reader and results calculated via the following equation:% Displacement = 100 − (IFAChE+ Propidium + inhibitor/IFAChE + Propidium) × 100(1) where IFAChE + Propidium = fluorescence intensity of propidium iodide associated with AChE in the absence of the test compound (taken as 100%), and IFAChE + Propidium + inhibitor = fluorescence intensity of propidium iodide associated with AChE in the presence of the test compound.

[5] = system: porcine liver CES; assay: CES inhibition, 4-NPA substrate; format: biochemical; conditions: compound concentration 20 µM
[6] = ABTS radical cation scavenging activity assay; conditions: 1 h incubation; for IC50: ABTS•+ 100 μM; for ABTS•+-Scavenging Activity, TEAC: Trolox equivalent antioxidant capacity
Description: Radical scavenging activity of the compounds was assessed using the ABTS radical cation (ABTS^•+) decolorization assay with modifications, described in detail in [30, 32]. ABTS (2,2′-azino-bis-(3-ethylbenzothiazoline-6-sulfonic acid)) was purchased from Tokyo Chemical Industry Co., Ltd. (Tokyo, Japan), potassium persulfate (dipotassium peroxodisulfate), Trolox (6-hydroxy-2,5,7,8-tetramethylchroman-2-carboxylic acid), HPLC-grade ethanol, and DMSO were obtained from Sigma-Aldrich. All tested compounds were dissolved in DMSO.
The reaction was monitored for 1 h with an interval of 1–10 min. Data are given for 1 h of incubation of compounds with ABTS^•+ (100 μM final concentration). The reduction in absorbance was measured spectrophotometrically at 734 nm using xMark UV/VIS microplate spectrophotometer (Bio-Rad, Hercules, CA, USA). Ethanol blanks were run in each assay. Values were obtained from three replicates of each sample and three independent experiments. Standard antioxidant Trolox was used as a reference compound. Trolox equivalent antioxidant capacity (TEAC) values were determined as the ratio between the slopes obtained from the linear correlation of the ABTS radical absorbance with the concentrations of tested compounds and Trolox.

[7] = biological target: β-amyloid (1–42) (Aβ42) (Homo sapiens, UniProt P05067); assay: Inhibition of Aβ42 self-aggregation, Thioflavin T fluorescence; format: biochemical; conditions: Aβ42 50 µM, compound 100 µM
Description: The inhibitory effect of the test compounds toward Aβ42 self-aggregation was determined using the Thioflavin T (ThT) fluorescence method with minor modifications. […] Therefore, the decrease in ThT fluorescence correlates with the activity of studied compounds to inhibit the formation of amyloid aggregates.
A total of 1 mg of lyophilized HFIP-pretreated Aβ42 from rPeptide (Watkinsville, GA, USA) was dissolved in DMSO to obtain a stable initial solution ([Aβ42] = 500 μM), then it was aliquoted and stored at −20 °C.
Then, the samples were incubated for 24 h at 37 °C without stirring in the absence (base level of Aβ42 self-aggregation, control) or presence of the test compounds. Myricetin and propidium iodide were used as references (positive controls). All compounds were used at a concentration of 100 µM. […] Analyses were performed with a FLUOStar Optima microplate reader (LabTech, Ortenberg, Germany). […] Each assay was run in triplicate.

[8] = biological target: T3, BChE (Equus caballus, UniProt P81908); assay: Kinetic study of BChE inhibition (Lineweaver-Burk); format: biochemical
T3 construct: we used human erythrocyte AChE, equine serum BChE, and porcine liver CES; purchased Sigma-Aldrich; host or cells: equine serum
Description: (§1) We assessed the mechanisms of AChE and BChE inhibition by performing a thorough analysis of enzyme kinetics. After a 5 min incubation at 25 °C (for temperature equilibration) with three increasing concentrations of inhibitor and six decreasing substrate concentrations, the residual enzyme activity was measured as described above for enzymatic assays.

[9] = biological target: T4, AChE (Homo sapiens, UniProt P22303); assay: Kinetic study of AChE inhibition (Lineweaver-Burk); format: biochemical
T4 construct: we used human erythrocyte AChE, equine serum BChE, and porcine liver CES; purchased Sigma-Aldrich; host or cells: human erythrocytes
Description: as §1

T2 sequence (O42275 24-633): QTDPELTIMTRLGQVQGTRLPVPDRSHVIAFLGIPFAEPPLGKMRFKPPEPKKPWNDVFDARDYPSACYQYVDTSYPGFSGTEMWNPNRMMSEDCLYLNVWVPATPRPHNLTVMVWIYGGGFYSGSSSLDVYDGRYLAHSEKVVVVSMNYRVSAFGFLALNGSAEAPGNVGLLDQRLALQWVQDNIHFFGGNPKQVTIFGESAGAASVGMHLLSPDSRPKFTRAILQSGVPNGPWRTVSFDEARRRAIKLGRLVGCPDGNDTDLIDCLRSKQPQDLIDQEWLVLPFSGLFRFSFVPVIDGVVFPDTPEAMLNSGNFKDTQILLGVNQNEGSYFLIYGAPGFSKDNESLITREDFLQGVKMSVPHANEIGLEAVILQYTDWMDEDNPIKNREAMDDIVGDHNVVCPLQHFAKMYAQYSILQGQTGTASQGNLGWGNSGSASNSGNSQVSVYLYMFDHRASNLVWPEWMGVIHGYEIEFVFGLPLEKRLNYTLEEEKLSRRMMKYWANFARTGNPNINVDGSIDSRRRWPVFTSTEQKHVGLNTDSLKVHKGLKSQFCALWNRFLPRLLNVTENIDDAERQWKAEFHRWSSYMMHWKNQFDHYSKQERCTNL
Sequence of human erythrocyte AChE (P22303 other isoform, or with tags, fused parts or gaps): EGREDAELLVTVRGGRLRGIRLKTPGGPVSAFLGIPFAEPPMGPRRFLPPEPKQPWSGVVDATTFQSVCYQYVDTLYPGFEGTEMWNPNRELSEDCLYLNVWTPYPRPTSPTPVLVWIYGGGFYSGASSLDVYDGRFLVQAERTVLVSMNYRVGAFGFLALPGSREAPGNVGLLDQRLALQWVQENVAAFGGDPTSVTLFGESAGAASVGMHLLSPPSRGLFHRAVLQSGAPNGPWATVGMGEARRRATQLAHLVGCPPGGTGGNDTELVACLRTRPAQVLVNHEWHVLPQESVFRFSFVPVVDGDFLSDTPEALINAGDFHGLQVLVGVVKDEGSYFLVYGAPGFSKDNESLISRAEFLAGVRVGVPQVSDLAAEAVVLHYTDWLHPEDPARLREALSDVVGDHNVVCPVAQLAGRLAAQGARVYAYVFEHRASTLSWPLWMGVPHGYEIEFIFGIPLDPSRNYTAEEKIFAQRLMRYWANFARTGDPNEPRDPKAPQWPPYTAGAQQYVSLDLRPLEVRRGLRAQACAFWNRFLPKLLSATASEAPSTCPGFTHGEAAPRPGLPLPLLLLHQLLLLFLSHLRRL
T4 sequence (P22303 other isoform, or with tags, fused parts or gaps): as above
Sequence of β-amyloid (1–42) (Aβ42) (P05067 672-713): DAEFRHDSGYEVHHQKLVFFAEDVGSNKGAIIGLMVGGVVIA
T3 sequence (P81908 whole entry): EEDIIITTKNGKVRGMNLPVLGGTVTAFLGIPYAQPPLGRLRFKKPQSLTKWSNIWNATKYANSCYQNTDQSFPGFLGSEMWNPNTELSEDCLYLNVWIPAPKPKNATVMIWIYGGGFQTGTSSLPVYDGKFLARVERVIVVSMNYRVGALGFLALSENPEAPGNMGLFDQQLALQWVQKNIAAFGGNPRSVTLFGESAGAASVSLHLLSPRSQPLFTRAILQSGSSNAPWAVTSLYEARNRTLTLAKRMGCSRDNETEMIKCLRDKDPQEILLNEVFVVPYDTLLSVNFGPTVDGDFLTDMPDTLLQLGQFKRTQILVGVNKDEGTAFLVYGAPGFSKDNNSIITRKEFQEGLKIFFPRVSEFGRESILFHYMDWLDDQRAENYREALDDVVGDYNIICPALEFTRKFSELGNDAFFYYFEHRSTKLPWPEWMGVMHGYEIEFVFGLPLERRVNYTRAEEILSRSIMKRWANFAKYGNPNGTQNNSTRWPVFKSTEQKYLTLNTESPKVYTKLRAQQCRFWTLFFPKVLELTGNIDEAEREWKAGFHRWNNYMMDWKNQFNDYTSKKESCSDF
T1 sequence (P81908 whole entry): as above

SMILES	IC50 [1] [µM]	FRAP, TE [2]	IC50 [3] [µM]	Displacement of Propidium from EeAChE PAS [4] [%]	Porcine Liver CES, (%) inhibition [5] [%]	IC50 [6]	ABTS•+-Scavenging Activity, TEAC [6]	inhibition at 100 µM [7] [%]	type of BChE inhibition ([8]; Lineweaver–Burk plots)	Ki ([8]; competitive component) [µM]	αKi, BChE ([8]; non-competitive component) [µM]	αKi, the non-competitive component, AChE [9] [µM]	type of AChE inhibition ([9]; Lineweaver–Burk plots)	Ki ([9]; read-out: Ki, the competitive component, AChE) [µM]
S=C(NCCCNC(=S)Nc1c2c(nc3c1CCC3)CCCC2)Nc1c2c(nc3c1CCC3)CCCC2 [Compound 5b]	10.9 ± 1	0.50 ± 0.03	0.689 ± 0.025	9.3 ± 0.8	4.2 ± 0.5	9.9 ± 0.5 µM	1.9 ± 0.08	1.6 ± 0.1	–	–	–	–	–	–
O=C(CNCCNCC(=O)Nc1c2c(nc3c1CCC3)CCCC2)Nc1c2c(nc3c1CCC3)CCCC2 [Compound 3a]	1.64 ± 0.08	–	0.11 ± 0.004	14.4 ± 1.2	4.8 ± 0.4	~180 µM	0.10 ± 0.004	–	mixed-type inhibition	0.0578 ± 0.0025	0.189 ± 0.007	2.62 ± 0.13	mixed-type inhibition	0.772 ± 0.047
Cc1c(C)c2c(c(C)c1O)CCC(C)(C(=O)O)O2 (stereo not drawn) [Trolox, 6-hydroxy-2,5,7,8-tetramethylchroman-2-carboxylic acid, reference compound]	–	1.0	–	–	–	20 µM and 20.1 µM	1.0	–	–	–	–	–	–	–
O=C(CNCCCCCCNCC(=O)Nc1c2c(nc3c1CCC3)CCCC2)Nc1c2c(nc3c1CCC3)CCCC2 [Compound 3d]	1.39 ± 0.1	–	1.11 ± 0.04	11.2 ± 0.8	6.0 ± 0.6	–	–	–	–	–	–	–	–	–
S=C(NCCNC(=S)Nc1c2c(nc3c1CCC3)CCCC2)Nc1c2c(nc3c1CCC3)CCCC2 [Compound 5a, 2,2′-Ethane-1,2-diylbis[N-(2,3,5,6,7,8-hexahydro-1H-cyclopenta[b]quinolin-9-yl)(thiourea)]]	96 ± 3.7	0.52 ± 0.04	4.08 ± 0.23	7.6 ± 0.6	4.3 ± 0.2	7.6 ± 0.4 µM	2.1 ± 0.07	2.9 ± 0.2	–	–	–	–	–	–
O=C(CNCCCCCCCCNCC(=O)Nc1c2c(nc3c1CCC3)CCCC2)Nc1c2c(nc3c1CCC3)CCCC2 [Compound 3e]	11.7 ± 1.1	0.05 ± 0.01	6.65 ± 0.5	13.2 ± 1.0	5.1 ± 0.9	> 200 µM	0.04 ± 0.002	–	–	–	–	–	–	–
Nc1c2c(nc3c1CCC3)CCCC2 [Amiridine]	–	–	–	–	–	–	0.04 ± 0.003	–	–	–	–	–	–	–
S=C(NCCCCCCCCNC(=S)Nc1c2c(nc3c1CCC3)CCCC2)Nc1c2c(nc3c1CCC3)CCCC2 [Compound 5g]	26.6 ± 0.6	0.85 ± 0.03	1.45 ± 0.09	2.2 ± 0.2	15.9 ± 1.5	10.8 ± 0.6 µM	1.5 ± 0.07	5.2 ± 0.4	–	–	–	–	–	–

Reference: publication PMC8839189, “Bis-Amiridines as Acetylcholinesterase and Butyrylcholinesterase Inhibitors: N-Functionalization Determines the Multitarget Anti-Alzheimer’s Activity Profile” (Molecules, 2022)
